Like-named read-outs stand apart in the source and are kept apart here. Non-standard residues stand in square brackets, D forms with d. Residues, ends and D or L forms follow the SMILES beside them. Dmt = Cc1cc(O)cc(C)c1C[C@H](N)C(=O)O; Tic = O=C(O)[C@@H]1Cc2ccccc2CN1
Experiments:
hMDR-1 = hMDR-1 (Homo sapiens, UniProt P08183); test: Calcein AM assay for Pgp in hMDR-1 transfected G-185 fibroblasts (Example 49); conditions: for inhibition of hMDR-1 (Pgp), in words: calcein fluorescence
Procedure: Stably transfected G-185 fibroblasts containing hMDR-1 and NIH 3T3 cell lines were grown to confluent monolayers in DMEM containing 4.5 g glucose/1, 10% fetal calf serum, L-glutamine, penicillin (50 units/ml), streptomycin (50 μg/ml) and 1 mM sodium pyruvate in 5% CO2 at 37° C. G-185 cells were maintained in […] colchicine.
The assay for Pgp is based on the diffusion of non-fluorescent calcein AM across the cell membrane. Calcein AM is then hydrolyzed and accumulates as the fluorescent calcein. In transfected cells expressing excess hMDR-1, Pgp extrudes calcein AM from the cell before hydrolysis occurs; inhibition of hMDR-1 results in the accumulation of intracellular calcein. Transfected G-185 cells and the NIH 3T3 cells were analyzed in triplicate using seven graded dosages of verapamil or the opioid peptides in 96-well plates. Cells (2.5×10^6/well) were incubated in 100 μl culture medium for 15 min at 37° C. and 50 μl of 1 μM calcein AM in PBS, plus 50 μl of verapamil or one of the present inventive compounds in PBS, or 100 μl of PBS alone (control) were added. Cells were mixed and incubated for 15 min at 37° C., then centrifuged for 5 min at 2,000×g, and then washed three times in 200 μl PBS. Cell pellets were resuspended in 200 μl PBS and transferred to white Microfluor Plates (Nunc, Copenhagen, Denmark) in order to measure calcein-specific fluorescence (494 nm absorption; 517 nm emission). Internal controls were carried out with each experiment using verapamil and PBS in order to compare the consistency between cell preparations. Means±SE (error bars) were determined and plotted using Prism™ (GraphPad, San Diego, Calif.).

μ-opioid receptors = target: T1, μ-opioid receptors (Rattus norvegicus, UniProt P33535); test: Rat brain synaptosome (P2) binding, [3H]DAGO (Example 47)
T1 construct: assayed with a rat brain synaptosomal preparation (P2); from tissue; host or cells: rat brain P2 synaptosomes
T1 sequence (P33535 whole entry): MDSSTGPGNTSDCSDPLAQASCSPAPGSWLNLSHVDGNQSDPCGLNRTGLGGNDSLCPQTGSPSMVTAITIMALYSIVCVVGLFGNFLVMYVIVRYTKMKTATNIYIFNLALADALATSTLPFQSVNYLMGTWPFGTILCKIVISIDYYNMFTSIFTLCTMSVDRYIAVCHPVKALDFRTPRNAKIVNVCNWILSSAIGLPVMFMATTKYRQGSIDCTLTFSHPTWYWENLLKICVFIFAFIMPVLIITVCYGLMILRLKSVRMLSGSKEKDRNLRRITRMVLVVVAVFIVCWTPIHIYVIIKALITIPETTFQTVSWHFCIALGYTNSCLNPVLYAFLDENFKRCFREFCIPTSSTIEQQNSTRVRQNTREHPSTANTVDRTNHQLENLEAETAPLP

δ-opioid receptors [1] = target: T2, δ-opioid receptors (Rattus norvegicus, UniProt P33533); test: Rat brain synaptosome (P2) binding, δ antagonist [3H]N,N(CH3)2-Dmt-Tic-OH (Example 47); conditions: for Antagonist K1μ/Kiδ: selectivity, Kiδ from antagonist radioligand [3H]N,N(CH3)2-Dmt-Tic-OH
T2 construct: assayed with a rat brain synaptosomal preparation (P2); from tissue; host or cells: rat brain P2 synaptosomes
T2 sequence (P33533 whole entry): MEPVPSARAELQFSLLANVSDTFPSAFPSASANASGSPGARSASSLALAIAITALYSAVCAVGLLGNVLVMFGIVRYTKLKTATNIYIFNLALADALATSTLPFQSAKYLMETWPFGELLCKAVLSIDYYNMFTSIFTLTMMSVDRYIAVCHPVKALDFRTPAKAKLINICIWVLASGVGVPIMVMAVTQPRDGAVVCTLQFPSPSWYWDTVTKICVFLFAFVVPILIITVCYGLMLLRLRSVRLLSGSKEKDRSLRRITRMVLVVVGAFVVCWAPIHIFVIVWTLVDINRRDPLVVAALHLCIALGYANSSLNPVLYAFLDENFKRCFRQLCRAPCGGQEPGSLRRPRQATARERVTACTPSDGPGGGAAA

δ-opioid receptors [2] = target: T2, δ-opioid receptors; test: Rat brain synaptosome (P2) binding, agonist [3H]DPDPE (Example 47); conditions: for Agonist K1μ/Kiδ: selectivity, Kiδ from agonist radioligand [3H]DPDPE; for δ affinity, in words / δ/μ selectivity, in words: from Table II binding
Procedure: Briefly, the agonists [^3H]DPDPE (30-60 Ci/mmol, NEN-DuPont) and [^3H]DAGO (30-60 Ci/mmol, Amersham) were used to label δ and μ sites, respectively, under saturation binding conditions (2 hrs at 22° C.). Excess unlabeled peptide (2 μM) established non-specific binding levels and the labeled membranes were rapidly filtered on Whatman GF/C glass fibre filters, thoroughly washed, dried and measured for radioactivity using CytoScint (ICN, Irvine, Calif.). […] The affinity constants (Ki) were calculated according to Cheng and Prusoff (Biochem. Pharmacol. 22: 3099-3108 (1973)).

μ receptors = μ receptors (Cavia porcellus, UniProt P97266); test: Guinea pig ileum (GPI) functional bioassay (Example 48)
μ receptors, sequence (P97266 whole entry, looked up): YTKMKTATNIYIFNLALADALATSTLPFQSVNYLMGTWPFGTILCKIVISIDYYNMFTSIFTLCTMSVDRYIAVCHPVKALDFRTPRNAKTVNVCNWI
Procedure: (§1) The functional bioactivity of the present inventive compounds was assessed using standard functional bioassays of δ and μ activity in MVD and GPI (Salvadori et al. (1995), supra; and Salvadori et al., J. Med. Chem. 36: 3748-3756 (1993)). […] Dose-response curves were obtained (Salvadori et al. (1995), supra) for both tissues. […] Data were derived from at least four independent tissue samples and dose-response curves from which the pA2 values were determined (Salvadori et al. (1997), supra) according to Arunlakshana and Schild (Br. J. Pharmacol. 14: 48-58 (1959)).

δ receptors = δ receptors (Mus musculus, UniProt P32300)
δ receptors, sequence (P32300 whole entry): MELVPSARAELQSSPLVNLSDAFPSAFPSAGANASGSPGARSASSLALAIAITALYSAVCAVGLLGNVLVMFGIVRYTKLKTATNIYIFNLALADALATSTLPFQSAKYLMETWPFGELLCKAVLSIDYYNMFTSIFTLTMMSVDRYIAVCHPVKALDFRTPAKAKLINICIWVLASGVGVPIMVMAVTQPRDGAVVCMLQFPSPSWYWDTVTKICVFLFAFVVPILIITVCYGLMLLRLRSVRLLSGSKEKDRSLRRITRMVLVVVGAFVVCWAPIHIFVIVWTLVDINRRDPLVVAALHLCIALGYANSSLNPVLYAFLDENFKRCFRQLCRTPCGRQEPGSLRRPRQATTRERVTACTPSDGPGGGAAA
Procedure: as §1

[3] = rat brain synaptosomes (P2), mean ± SEM, n in parentheses, read-out: Kiμ (nM) [^3H]DAGO
[4] = rat brain synaptosomes (P2), δ antagonist radioligand, mean ± SEM, n in parentheses, read-out: Kiδ(nM) [^3H]N,N(CH3)2-Dmt-Tic-OH
[5] = rat brain synaptosomes (P2), mean ± SEM, n in parentheses, read-out: Kiδ(nM) [^3H]DPDPE

hMDR-1, sequence (P08183 whole entry): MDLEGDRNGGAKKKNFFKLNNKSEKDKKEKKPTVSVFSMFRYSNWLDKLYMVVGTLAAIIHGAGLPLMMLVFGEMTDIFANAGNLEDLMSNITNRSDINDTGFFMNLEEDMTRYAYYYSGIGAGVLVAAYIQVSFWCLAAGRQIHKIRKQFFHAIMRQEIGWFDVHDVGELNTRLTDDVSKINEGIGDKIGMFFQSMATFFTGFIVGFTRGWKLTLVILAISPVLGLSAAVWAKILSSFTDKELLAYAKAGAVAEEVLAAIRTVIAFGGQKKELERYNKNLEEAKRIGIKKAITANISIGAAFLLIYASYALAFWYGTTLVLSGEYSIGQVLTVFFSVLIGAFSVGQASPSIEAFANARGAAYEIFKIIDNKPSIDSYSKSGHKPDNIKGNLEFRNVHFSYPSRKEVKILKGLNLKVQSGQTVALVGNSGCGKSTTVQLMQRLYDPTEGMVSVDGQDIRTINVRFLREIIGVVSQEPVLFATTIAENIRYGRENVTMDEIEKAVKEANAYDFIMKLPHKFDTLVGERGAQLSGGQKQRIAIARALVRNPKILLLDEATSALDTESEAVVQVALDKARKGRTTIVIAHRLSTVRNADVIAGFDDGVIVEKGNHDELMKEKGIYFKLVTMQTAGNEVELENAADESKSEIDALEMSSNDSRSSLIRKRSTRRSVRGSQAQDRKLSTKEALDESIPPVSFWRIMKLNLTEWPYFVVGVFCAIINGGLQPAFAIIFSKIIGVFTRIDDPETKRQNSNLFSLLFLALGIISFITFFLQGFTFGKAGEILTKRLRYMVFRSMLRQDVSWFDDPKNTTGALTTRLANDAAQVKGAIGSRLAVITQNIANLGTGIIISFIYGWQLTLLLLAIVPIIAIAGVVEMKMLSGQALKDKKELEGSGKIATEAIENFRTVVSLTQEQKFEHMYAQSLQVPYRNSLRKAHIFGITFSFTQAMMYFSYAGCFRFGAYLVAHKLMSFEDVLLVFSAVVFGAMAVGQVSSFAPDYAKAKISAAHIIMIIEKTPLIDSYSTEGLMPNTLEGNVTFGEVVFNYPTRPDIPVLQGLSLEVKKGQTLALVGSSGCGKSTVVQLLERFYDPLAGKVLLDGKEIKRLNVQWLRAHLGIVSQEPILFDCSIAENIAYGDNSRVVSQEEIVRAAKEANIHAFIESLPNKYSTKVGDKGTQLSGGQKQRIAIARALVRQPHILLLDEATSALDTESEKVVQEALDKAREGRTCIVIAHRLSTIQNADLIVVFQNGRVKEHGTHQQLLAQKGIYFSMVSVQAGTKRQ

Row | Compound | inhibition of hMDR-1 (Pgp), in words (hMDR-1) | Ki (μ-opioid receptors; [3]) [nM] | Ki (δ-opioid receptors [1]; [4]) [nM] | Antagonist K1μ/Kiδ (δ-opioid receptors [1]) | Ki (δ-opioid receptors [2]; [5]) [nM] | Agonist K1μ/Kiδ (δ-opioid receptors [2]) | further results
1 | H-Dmt-Sar-Bid [DSB] | inactive |  |  |  |  |  | 
2 | COC(=O)[C@H](C)NC(=O)[C@@H]1Cc2ccccc2CN1C(=O)[C@@H](N)Cc1c(C)cc(O)cc1C [Compound 19, H-Dmt-Tic-Ala-OMe] (H-[Dmt]-[Tic]-Ala-OMe) |  | 11.3 ± 1.87 | 0.14 ± 0.04 | 83 | 0.23 ± 0.09 | 48 | 
3 | Cc1cc(O)cc(C)c1C[C@@H](C(=O)N1Cc2ccccc2C[C@H]1C(=O)O)N1CCCC1 [Compound 4, [des-NH2-α-pyrrolidine-1-yl]-Dmt-Tic-OH] |  | 814 ± 65 | 1.42 ± 0.14 | 573 | 1.62 ± 0.19 | 502 | EC50 (μ receptors): > 10000 nM; bioactivity on MVD (δ), in words (δ receptors): detrimental for all bioactivity measurements on MVD; Kb (δ receptors; MVD pA2 (range), δ antagonism against deltorphin C, mean (range)): 126 nM; MVD Ke (δ receptors; δ antagonism, Ke = antilog of pA2): 121 nM
4 | CC(C)[C@H](NC(=O)[C@H](CCC(=O)O)NC(=O)[C@H](Cc1ccccc1)NC(=O)[C@@H](C)NC(=O)[C@@H](N)Cc1ccc(O)cc1)C(=O)N[C@H](C(=O)NCC(N)=O)C(C)C [deltorphin B, H-Tyr-D-Ala-Phe-Glu-Val-Val-Gly-NH2] | inactive |  |  |  |  |  | 
5 | C[C@@H](NC(=O)[C@@H](N)Cc1ccc(O)cc1)C(=O)N[C@@H](Cc1ccccc1)C(=O)N[C@@H](Cc1c[nH]c2ccccc12)C(=O)N[C@@H](Cc1ccc(O)cc1)C(N)=O [[Trp^4,Tyr^5]DER, H-Tyr-D-Ala-Phe-Trp-Tyr-NH2] (H-Y[dA]FWY-NH2) | inactive |  |  |  |  |  | 
6 | C[C@@H](NC(=O)[C@@H](N)Cc1ccc(O)cc1)C(=O)N[C@@H](Cc1ccccc1)C(=O)N[C@@H](Cc1c[nH]c2ccccc12)C(=O)N[C@@H](Cc1ccc(O)cc1)C(=O)N1CCC[C@H]1C(=O)N[C@@H](CCCCN)C(=O)O [[Trp^4,Lys-OH^7]DER, H-Tyr-D-Ala-Phe-Trp-Tyr-Pro-Lys-OH] (H-Y[dA]FWYPK-OH) | inactive |  |  |  |  |  | 
7 | Cc1cc(O)cc(C)c1CC(CN)C(=O)N1Cc2ccccc2C[C@H]1C(=O)O (stereo partly drawn) [Compound 2, H-αDmt-Tic-OH] |  | 1740 ± 16 | 475 ± 37 | 4 | 11.2 ± 3.5 | 155 | 
8 | COc1ccc(CCN(C)CCCC(C#N)(c2ccc(OC)c(OC)c2)C(C)C)cc1OC (stereo not shown) [verapamil] |  |  |  |  |  |  | maximum effective dose (hMDR-1): 75 to 100 µM
9 | CCN(CC)[C@@H](Cc1c(C)cc(O)cc1C)C(=O)N1Cc2ccccc2C[C@H]1C(=O)O [Compound 17, N,N(Et)2-DMT-Tic-OH] |  |  |  |  |  | 35.3 ± 1.96 (3-5) | Ki (δ-opioid receptors [2]): 0.92 ± 0.19 nM
10 | Cc1cc(O)cc(C)c1C[C@H](N)C(=O)N1Cc2ccccc2C[C@@H]1C(=O)NC12CC3CC(CC(C3)C1)C2 [Compound 12, H-Dmt-D-Tic-NH-1-adamantane] |  |  |  | 0.004 |  | 0.01 | Ki (μ-opioid receptors): 0.26 ± 0.08 nM; EC50 (μ receptors): 1680 nM; bioactivity on GPI (μ), in words (μ receptors): μM activity on GPI; Kb (δ receptors; MVD Ke(nM), δ antagonism, Ke = antilog of pA2): > 10000 nM; Ki (δ-opioid receptors [1]): 70.3 ± 7.25 nM; Ki (δ-opioid receptors [2]): 24.5 ± 4.9 nM; δ affinity, in words (δ-opioid receptors [2]): lost high δ affinity; δ/μ selectivity, in words (δ-opioid receptors [2]): moderately μ selective
11 | COC(=O)[C@@H]1Cc2ccccc2CN1C(=O)[C@@H](N)Cc1c(C)cc(O)cc1C [Compound 8, H-Dmt-Tic-OMe] (H-[Dmt]-[Tic]-OMe) |  | 423 ± 25 | 500 ± 90 | 0.8 | 9.64 ± 2.2 | 44 | δ affinity, in words (δ-opioid receptors [2]): lost high δ affinity; δ/μ selectivity, in words (δ-opioid receptors [2]): weakly μ selective

— patent publication US6916905B2, “Dmt-Tic di-and tri-peptidic derivatives and related compositions and methods of use” (The United States of America as represented by the …, priority 2000, dated 2005)
